Earlier results as cited in patent publication US11752221B2, “Brush-arm star polymer imaging agents and uses thereof” (priority 2017, dated 2023).
“And” between values parts separate entries of the source, which are not always exact repeats. Equal values may be shown once. Read-outs that look alike come from different tables or passages of the source.

Assays:
[1] = earlier studies
[2] = 0.2 mM nitroxide, 4.0 mM Asc
subcutaneous C26 tumors = conditions: 0.23 mmol Gd/kg iv dose, after 4 hours

Row | Structure (SMILES) | r1 (per-chex for chex polymers) [1] | Initial kinetics (<1 h) k × 10^4 ([2]; 0.0 mM GSH, data used IPH) | Initial kinetics (<1 h) k′ × 10^4 ([2]; 0.0 mM GSH, data used IPH) | Initial kinetics Avg k × 10^4 ([2]; 0.0 mM GSH, data used IPH) | Initial kinetics (<1 h) k × 10^4 ([2]; 0.0 mM GSH, data used PH) | Initial kinetics (<1 h) k′ × 10^4 ([2]; 0.0 mM GSH, data used PH) | Initial kinetics Avg k × 10^4 ([2]; 0.0 mM GSH, data used PH) | Late kinetics (>1 h) k × 10^4 ([2]; 0.0 mM GSH, data used PH) | Late kinetics (>1 h) k′ × 10^4 ([2]; 0.0 mM GSH, data used PH) | Initial kinetics (<1 h) k × 10^4 ([2]; 5.0 mM GSH, data used IPH) | Initial kinetics (<1 h) k′ × 10^4 ([2]; 5.0 mM GSH, data used IPH) | Initial kinetics Avg k × 10^4 ([2]; 5.0 mM GSH, data used IPH) | Initial kinetics (<1 h) k × 10^4 ([2]; 5.0 mM GSH, data used PH) | Initial kinetics (<1 h) k′ × 10^4 ([2]; 5.0 mM GSH, data used PH) | Initial kinetics Avg k × 10^4 ([2]; 5.0 mM GSH, data used PH) | contrast enhancement of tumor (subcutaneous C26 tumors)
1 | CC1(C)CC(C(=O)O)C(C)(C)N1[O] (stereo not shown) [3-CP, 3-carboxy-2,2,5,5-tetramethyl-1-pyrrolidinyloxy] | 0.14 mM⁻¹ s⁻¹ | 636.8 M^−1 s^−1 and 624.5 M^−1 s^−1 and 614.8 M^−1 s^−1 | 2.547 s^−1 and 2.498 s^−1 and 2.459 s^−1 | 625 ± 22 M^−1 s^−1 | 636.0 M^−1 s^−1 and 599.0 M^−1 s^−1 and 597.3 M^−1 s^−1 | 2.504 s^−1 and 2.396 s^−1 and 2.389 s^−1 | 611 ± 44 M^−1 s^−1 | 295 M^−1 s^−1 | 1.18 s^−1 | 608.8 M^−1 s^−1 and 609.6 M^−1 s^−1 and 605.6 M^−1 s^−1 | 2.435 s^−1 and 2.438 s^−1 and 2.423 s^−1 | 608.0 ± 4.2 M^−1 s^−1 | 590.3 M^−1 s^−1 and 602.4 M^−1 s^−1 and 615.2 M^−1 s^−1 | 2.361 s^−1 and 2.410 s^−1 and 2.461 s^−1 | 602.6 ± 25 M^−1 s^−1 | 
2 | O=C([O-])CN(CCN(CC(=O)[O-])CC(=O)O)CCN(CC(=O)[O-])CC(=O)O.[Gd+3] [Gd-DTPA] |  |  |  |  |  |  |  |  |  |  |  |  |  |  |  | negligible contrast enhancement
